Results reported in ChEMBL document CHEMBL1135866, “Photochemical preparation of a pyridone containing tetracycle: a Jak protein kinase inhibitor” (Bioorg Med Chem Lett, 2002).

Key:
[1] = Inhibition of IL-2 induced JAK-1/JAK-3-associated murine T cell lymphoma cell proliferation; format: functional, cell-based; conditions: Mus musculus
[2] = Inhibition of IL-4 induced JAK-1/JAK-3 associated murine T cell lymphoma cell proliferation; format: functional, cell-based; conditions: Mus musculus
CTLL = test: Inhibition of PMA-induced murine T cell lymphoma cell proliferation; format: functional, cell-based; conditions: Mus musculus
[3] = biological target: Cyclin-dependent kinase 2 (Homo sapiens, UniProt P24941); test: Inhibition of cyclin dependent kinase 2
[4] = biological target: Fibroblast growth factor receptor 2 (Homo sapiens, UniProt P21802); test: Inhibition of Fibroblast growth factor receptor 2
Chain of Fibroblast growth factor receptor 2 (P21802 whole entry): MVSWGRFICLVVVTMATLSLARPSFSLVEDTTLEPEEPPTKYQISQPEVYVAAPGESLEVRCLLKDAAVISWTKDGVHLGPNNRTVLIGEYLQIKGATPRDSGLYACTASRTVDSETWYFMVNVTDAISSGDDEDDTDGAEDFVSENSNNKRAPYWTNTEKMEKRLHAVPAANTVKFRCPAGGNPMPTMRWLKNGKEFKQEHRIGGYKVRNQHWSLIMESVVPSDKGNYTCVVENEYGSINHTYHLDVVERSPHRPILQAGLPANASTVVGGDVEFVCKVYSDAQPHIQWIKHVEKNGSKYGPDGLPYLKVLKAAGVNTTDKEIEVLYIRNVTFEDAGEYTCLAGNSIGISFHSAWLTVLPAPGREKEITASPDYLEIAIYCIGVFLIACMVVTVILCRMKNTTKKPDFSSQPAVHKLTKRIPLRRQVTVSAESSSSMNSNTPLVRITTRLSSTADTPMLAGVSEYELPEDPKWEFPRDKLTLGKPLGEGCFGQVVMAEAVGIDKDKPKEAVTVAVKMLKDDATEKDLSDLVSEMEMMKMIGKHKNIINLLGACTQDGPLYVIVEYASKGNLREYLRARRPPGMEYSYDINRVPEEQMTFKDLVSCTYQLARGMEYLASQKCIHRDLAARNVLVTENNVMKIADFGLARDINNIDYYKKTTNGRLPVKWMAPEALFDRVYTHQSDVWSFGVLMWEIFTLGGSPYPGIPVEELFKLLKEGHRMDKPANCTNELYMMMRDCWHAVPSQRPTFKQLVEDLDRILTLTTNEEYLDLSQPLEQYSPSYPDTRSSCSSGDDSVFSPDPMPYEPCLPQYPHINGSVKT

[5] = biological target: Tyrosine-protein kinase HCK (Homo sapiens, UniProt P08631); test: Inhibition of protein kinase Hck
Chain of Tyrosine-protein kinase HCK (P08631 whole entry): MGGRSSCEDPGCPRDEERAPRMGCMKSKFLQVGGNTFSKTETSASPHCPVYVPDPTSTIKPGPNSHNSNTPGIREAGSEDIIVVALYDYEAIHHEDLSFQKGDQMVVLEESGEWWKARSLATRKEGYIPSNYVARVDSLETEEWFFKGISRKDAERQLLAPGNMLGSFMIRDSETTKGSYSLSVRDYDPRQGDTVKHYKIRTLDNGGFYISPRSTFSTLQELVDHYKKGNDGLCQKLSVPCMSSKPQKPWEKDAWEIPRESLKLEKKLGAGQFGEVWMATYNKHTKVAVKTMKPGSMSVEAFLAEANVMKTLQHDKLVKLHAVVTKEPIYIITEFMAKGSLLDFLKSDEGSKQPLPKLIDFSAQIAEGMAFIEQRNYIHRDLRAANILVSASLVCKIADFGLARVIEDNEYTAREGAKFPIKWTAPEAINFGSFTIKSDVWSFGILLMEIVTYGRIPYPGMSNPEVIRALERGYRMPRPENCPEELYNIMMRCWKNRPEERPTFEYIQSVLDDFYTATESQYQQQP

[6] = biological target: T1, Inhibitor of nuclear factor kappa-B kinase subunit beta (Homo sapiens, UniProt O14920); test: Inhibition of I-kappa-B kinase 2
T1 sequence (O14920 whole entry): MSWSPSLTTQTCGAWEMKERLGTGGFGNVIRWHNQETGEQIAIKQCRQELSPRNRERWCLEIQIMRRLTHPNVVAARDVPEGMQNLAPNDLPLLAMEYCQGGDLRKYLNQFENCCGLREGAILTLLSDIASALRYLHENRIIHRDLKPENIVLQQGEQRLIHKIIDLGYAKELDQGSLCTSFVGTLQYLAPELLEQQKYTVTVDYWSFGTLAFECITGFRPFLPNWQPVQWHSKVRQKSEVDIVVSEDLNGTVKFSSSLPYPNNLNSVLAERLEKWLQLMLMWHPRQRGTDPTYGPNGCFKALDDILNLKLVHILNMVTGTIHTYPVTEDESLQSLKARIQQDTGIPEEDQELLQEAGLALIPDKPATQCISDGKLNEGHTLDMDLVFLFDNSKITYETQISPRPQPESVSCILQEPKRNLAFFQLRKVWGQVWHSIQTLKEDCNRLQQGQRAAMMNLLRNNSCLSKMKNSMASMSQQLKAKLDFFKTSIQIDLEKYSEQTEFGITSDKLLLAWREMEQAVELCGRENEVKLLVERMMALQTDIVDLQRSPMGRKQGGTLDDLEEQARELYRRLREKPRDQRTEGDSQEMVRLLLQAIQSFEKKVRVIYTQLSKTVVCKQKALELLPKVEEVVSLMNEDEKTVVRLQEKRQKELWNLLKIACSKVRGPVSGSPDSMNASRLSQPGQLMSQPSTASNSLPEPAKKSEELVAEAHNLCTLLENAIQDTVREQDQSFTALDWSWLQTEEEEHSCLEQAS

[7] = biological target: Protein kinase C alpha type (Homo sapiens, UniProt P17252); test: Inhibition of protein kinase C alpha
Angiopoietin-1 receptor = Angiopoietin-1 receptor (Homo sapiens, UniProt Q02763); test: Inhibition of Tek kinase
[8] = biological target: Vascular endothelial growth factor receptor 3 (Homo sapiens, UniProt P35916); test: Inhibition of Vascular endothelial growth factor receptor 3
Chain of Vascular endothelial growth factor receptor 3 (P35916 whole entry): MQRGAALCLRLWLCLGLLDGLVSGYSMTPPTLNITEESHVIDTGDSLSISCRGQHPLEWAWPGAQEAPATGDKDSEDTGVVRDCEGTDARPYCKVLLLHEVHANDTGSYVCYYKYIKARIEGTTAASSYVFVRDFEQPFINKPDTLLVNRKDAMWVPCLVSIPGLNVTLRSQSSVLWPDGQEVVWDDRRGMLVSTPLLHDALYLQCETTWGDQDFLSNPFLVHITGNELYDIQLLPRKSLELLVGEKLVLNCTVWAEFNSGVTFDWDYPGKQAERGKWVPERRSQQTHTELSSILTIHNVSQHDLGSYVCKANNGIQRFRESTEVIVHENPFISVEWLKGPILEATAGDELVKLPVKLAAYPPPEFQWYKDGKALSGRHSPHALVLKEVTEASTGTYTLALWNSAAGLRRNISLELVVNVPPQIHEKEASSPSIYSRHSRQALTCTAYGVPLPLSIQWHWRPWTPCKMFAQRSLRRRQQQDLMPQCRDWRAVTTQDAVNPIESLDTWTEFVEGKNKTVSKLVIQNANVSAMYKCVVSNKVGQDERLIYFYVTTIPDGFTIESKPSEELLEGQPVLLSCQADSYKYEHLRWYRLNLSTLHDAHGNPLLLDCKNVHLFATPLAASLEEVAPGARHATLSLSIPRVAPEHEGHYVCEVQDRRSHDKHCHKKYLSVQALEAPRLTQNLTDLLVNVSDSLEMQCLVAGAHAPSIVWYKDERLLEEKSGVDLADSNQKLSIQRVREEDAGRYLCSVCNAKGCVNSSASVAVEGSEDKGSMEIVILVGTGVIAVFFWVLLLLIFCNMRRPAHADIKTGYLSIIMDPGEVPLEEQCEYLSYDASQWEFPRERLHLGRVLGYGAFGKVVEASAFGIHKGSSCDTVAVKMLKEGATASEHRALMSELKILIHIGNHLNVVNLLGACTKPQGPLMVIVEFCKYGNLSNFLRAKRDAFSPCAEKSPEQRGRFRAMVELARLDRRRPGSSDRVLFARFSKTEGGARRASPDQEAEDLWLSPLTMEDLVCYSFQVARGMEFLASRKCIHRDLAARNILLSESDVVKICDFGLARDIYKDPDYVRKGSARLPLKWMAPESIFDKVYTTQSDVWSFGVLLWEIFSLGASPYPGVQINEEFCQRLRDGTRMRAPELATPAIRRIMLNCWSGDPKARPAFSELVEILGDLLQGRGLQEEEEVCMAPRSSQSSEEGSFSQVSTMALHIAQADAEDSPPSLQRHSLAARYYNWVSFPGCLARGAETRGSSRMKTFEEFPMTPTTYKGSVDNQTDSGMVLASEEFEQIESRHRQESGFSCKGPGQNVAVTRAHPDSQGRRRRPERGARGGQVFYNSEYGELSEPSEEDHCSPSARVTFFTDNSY

[9] = biological target: RAF proto-oncogene serine/threonine-protein kinase (Homo sapiens, UniProt P04049); test: Inhibition of protein kinase Raf
Chain of RAF proto-oncogene serine/threonine-protein kinase (P04049 whole entry): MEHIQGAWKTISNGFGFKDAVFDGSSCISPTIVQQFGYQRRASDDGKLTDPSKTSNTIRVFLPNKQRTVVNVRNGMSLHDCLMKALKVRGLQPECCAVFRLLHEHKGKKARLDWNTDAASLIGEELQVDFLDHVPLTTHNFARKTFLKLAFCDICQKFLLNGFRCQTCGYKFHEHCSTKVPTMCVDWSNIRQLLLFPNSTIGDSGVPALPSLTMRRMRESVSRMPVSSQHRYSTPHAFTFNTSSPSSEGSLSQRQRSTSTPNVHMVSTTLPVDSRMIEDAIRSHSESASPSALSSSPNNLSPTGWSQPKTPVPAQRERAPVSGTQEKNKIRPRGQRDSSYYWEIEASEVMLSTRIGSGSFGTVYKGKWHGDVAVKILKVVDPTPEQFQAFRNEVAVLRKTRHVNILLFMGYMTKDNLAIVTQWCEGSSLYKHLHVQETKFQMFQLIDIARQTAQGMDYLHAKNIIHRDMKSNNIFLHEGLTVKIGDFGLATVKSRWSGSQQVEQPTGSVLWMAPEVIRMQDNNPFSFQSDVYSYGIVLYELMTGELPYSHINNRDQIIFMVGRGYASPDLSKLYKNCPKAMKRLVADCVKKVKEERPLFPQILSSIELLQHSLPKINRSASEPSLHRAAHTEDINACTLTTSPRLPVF

[10] = Inhibition of protein kinase cAMP-dependent protein kinase

IC50 [3]: 3300 nM
IC50 [4]: 940 nM
IC50 [5]: 7700 nM
IC50 [6]: 300 nM
IC50 [7]: 1200 nM
IC50 (Angiopoietin-1 receptor): 24000 nM
IC50 [8]: 690 nM
IC50 [9]: > 10000 nM
IC50 [10]: 7100 nM
SMILES: CC(C)(C)c1nc2c3ccc(F)cc3c3c(=O)[nH]ccc3c2[nH]1
IC50 [1]: 100 nM
IC50 [2]: 52 nM
IC50 (CTLL): 3100 nM
